Measurements: patent publication US20260130999A1, “METHODS FOR TREATING CANCERS ASSOCIATED WITH ETBR ACTIVATION” (ENB Therapeutics, Inc., priority 2022, published 2026)

Tested on: 4T-1-HER2 mammary tumors
Experiment: 4T1-HER2 mammary tumors in syngeneic female BALB/c mice treated with anti-HER2 CAR-T, BQ-788-B and anti-PD1
Assay type: in vivo
Source text: Lentivirus for expression of an anti-HER2 CAR was produced by co-transfecting 293T-17 cells with lentiviral vector pLVX-EF1α-CAR-IRES-ZsGreen1 together with the packaging plasmids pSPAX2 and pMD2.G. Splenocytes from 6-week old female BALB/c mice were isolated by density-gradient centrifugation using a lymphocyte separation medium, Histopaque, activated in 24-well plates at a density of 1×10^6 cell/ml using a mouse T Cell Activation/Expansion Kit for 2-3 days, and then transduced with pLVX-EF1α-CAR-IRES-ZsGreen1 lentivirus at the multiplicity of infection of 20 in the presence of 8 µg/mL polybrene by centrifugation at 1,500×g for 2 hours at 32° C. GFP+ transduced T cells were analyzed by flow cytometry to evaluate the lentiviral transduction efficiency.
4T1-HER2 cells (4×10^6), were resuspended in 0.1 mL PBS and mixed with 0.1 mL Matrigel and injected subcutaneously into the right back region of BALB/c female mice (6-week-old, weighed 17-20 g). Tumor growth was monitored by caliper measurement every three days.
About 14 days after 4T-1-HER2 cell injection, when the tumor diameter reaches about 6 mm in diameter, mice were randomized into eight groups for treatments (6 mice per group).
Blank T or CAR-T cells (1×10^7 cells/mice) were injected intravenously into each mouse on day 11 and day 18 post-tumor inoculation. BQ-788-B ([…]) or PBS was administered via subcutaneous injection into each mouse, starting on day 10, every two or three days for a total of 9 injections. All mice were injected intraperitoneally with 20,000 IU IL-2 once every 2 days from day 14 to […] (Note: day 0 is defined as when 4T1-HER2 cells are injected into mice). Anti-PD1 or isotype control Ig (230 ug/mouse) was injected IP every 4 days, starting on day 11 post tumor inoculation (4 injections total). The eight treatment groups are listed below: • 1) Blank T+PBS+isotype • 2) CAR-T+PBS+isotype • 3) BQ-788-B+Blank T+isotype • 4) Blank T+PBS+anti-PD1 • 5) BQ-788-B+CAR-T+ isotype • 6) CAR-T+PBS+anti-PD1 • 7) BQ-788-B+Blank T+anti-PD1 • 8) BQ-788-B+CAR-T+ anti-PD1
Tumor growth was monitored by caliper measurement every three days. On the 30th day after 4T1-HER2 cell injection, all mice were euthanized by asphyxiation with CO2 followed by cervical dislocation. All tumors were dissected out and photographed before fixation in 10% formalin.

[2H]C[C@@H]1CCC[C@H](C[2H])N1C(=O)N[C@@H](CC(C)(C)C)C(=O)N[C@H](Cc1cn(C(=O)OC)c2ccccc12)C(=O)N[C@H](CCCC)C(=O)O [BQ-788-B]
tumor volumes at day 29 (BQ-788-B in combination with anti-PD1 and/or CAR-T therapy, compared to control, CAR-T alone, or PD-1 alone, FIG. 4): significantly reduced tumor volumes | tumor weights at day 30 (BQ-788-B in combination with anti-PD1 and/or CAR-T therapy, compared to control, CAR-T alone, or PD-1 alone, FIGS. 5A and 5B): significantly reduced tumor weights | anti-tumor efficacy of CAR-T cells, of anti-PD-1 antibody therapy and of their combinations (addition of BQ-788-B): significantly enhances the anti-tumor efficacy | tumor suppression at later time points (addition of BQ-788-B in mice treated with either anti-PD1 or CAR-T therapy): enhanced tumor suppression
